# Biological target: T1, aryl hydrocarbon receptor (AHR) (Homo sapiens, UniProt P35869)
# T1 sequence (P35869 11-848): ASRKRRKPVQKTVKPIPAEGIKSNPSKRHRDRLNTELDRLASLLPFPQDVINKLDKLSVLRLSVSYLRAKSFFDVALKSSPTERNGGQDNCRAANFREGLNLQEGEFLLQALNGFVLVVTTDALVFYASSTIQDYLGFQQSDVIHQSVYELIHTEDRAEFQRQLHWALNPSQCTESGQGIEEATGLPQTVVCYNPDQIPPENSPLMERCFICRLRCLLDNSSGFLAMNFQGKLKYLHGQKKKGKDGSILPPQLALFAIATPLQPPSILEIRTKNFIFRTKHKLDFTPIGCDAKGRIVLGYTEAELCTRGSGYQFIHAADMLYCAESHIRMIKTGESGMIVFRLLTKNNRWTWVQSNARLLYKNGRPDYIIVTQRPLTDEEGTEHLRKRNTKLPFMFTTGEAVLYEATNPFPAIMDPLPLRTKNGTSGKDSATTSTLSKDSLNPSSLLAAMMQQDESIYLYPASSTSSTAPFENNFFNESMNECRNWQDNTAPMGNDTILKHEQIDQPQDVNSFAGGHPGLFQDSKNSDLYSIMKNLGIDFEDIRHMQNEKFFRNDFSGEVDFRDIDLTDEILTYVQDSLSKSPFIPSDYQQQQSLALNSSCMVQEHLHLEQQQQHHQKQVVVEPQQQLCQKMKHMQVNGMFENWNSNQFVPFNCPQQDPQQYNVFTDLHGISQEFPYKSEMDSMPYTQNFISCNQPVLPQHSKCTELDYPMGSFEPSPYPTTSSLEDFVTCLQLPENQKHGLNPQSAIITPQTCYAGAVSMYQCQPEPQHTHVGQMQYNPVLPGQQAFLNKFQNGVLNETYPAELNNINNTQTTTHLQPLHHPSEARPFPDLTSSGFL
# Test: DRE-Luciferase reporter high-throughput screen (AHR antagonist, VAF347-activated)
row,SMILES,IC50
1,Cn1nc(C(F)(F)F)c2cc(C(=O)Nc3ccc(F)cc3)sc21 [24B],500 to 1000 nM
2,O=[N+]([O-])c1cccc(-c2ccc(SCc3ccccc3F)nn2)c1 [48B],500 to 1000 nM
3,O=C(Nc1ccc(-c2cnc(C3CC3)o2)cc1)c1cccc(F)c1 [2A],> 2000 nM
4,CS(=O)(=O)N1CCc2cc(-c3csc(Cc4cn5cc(Cl)cc(Cl)c5n4)n3)ccc21 [57A],1000 to 2000 nM
5,CCCc1cc(C(=O)N2CCC(C3CCCCC3)C2)[nH]n1 (stereo not drawn) [106A],1000 to 2000 nM
6,Cc1nc(N2CCN(c3ccccc3F)CC2)nc2c1C(=O)CCC2 [77A],1000 to 2000 nM
7,Cc1ccc(N)cc1Nc1nccc(-c2cccnc2)n1 [compound 85],500 to 1000 nM
8,COc1ccc(N2CC(c3ccc(F)cc3)=CC2=O)cc1 [152A],1000 to 2000 nM
9,CNc1nc(-c2sc3ncnn3c2C)cs1 [40B],1000 to 2000 nM
10,COc1ccc(-c2cc3ncc(-c4ccccc4)c(N)n3n2)cc1 [118A],1000 to 2000 nM
11,Cc1nc(NC(=O)c2cc3nc(N(C)C)n(-c4ccccc4)c3s2)sc1C [49A],1000 to 2000 nM
12,Clc1ccc2nnn(OCc3coc(-c4cccs4)n3)c2c1 [132A],1000 to 2000 nM
13,O=c1ccc2ccc(OCc3ccc(F)cc3Cl)cc2o1 [111B],200 to 500 nM
14,O=C(Nc1ncccc1Br)c1cc(-n2cccn2)ccn1 [17A],1000 to 2000 nM
15,Cc1ccc(NC(=O)c2cc3c(=O)[nH]c(=O)n(C)c3nc2C)cc1Cl [28B],200 to 500 nM
16,N#Cc1c(N)c(-c2ccc(F)cc2)cn2c1nc1ccccc12 [120B],500 to 1000 nM
17,COc1ccc(N2CCN(c3nc(OC)nc(OC)n3)CC2)cc1 [68A],1000 to 2000 nM
18,Cc1c(Br)c(C(=O)N2CCc3ccccc32)nn1C [61B],1000 to 2000 nM
19,CC(=O)N(CCc1ccccc1F)c1nc2ccccc2s1 [108B],1000 to 2000 nM
20,CCOC(=O)c1sc(NC(=O)c2sccc2C)cc1C [compound 44],500 to 1000 nM
21,FC(F)(F)c1cnc(-c2cnc(-c3ccccn3)nc2)c(Cl)c1 [compound 87],500 to 1000 nM
22,O=C(NCCC1=CCCCC1)c1[nH]nc2c1CCCC2 [109B],1000 to 2000 nM
23,CC(=O)Nc1ccc(NC(=O)c2cccc3c2OCC3)cc1 [43A],1000 to 2000 nM
24,C/C(=N\NC(=O)c1ccco1)c1ccc(Cl)c(Cl)c1 [43B],> 2000 nM

row,SMILES,IC50
1,Cc1cc2cc(Nc3nccc(C(F)(F)F)n3)ccc2[nH]1 [compound 84],200 to 500 nM
2,CCOC(=O)Nc1ccc(-n2ccc(C)n2)cc1 [57B],1000 to 2000 nM
3,N#Cc1c(NC(=O)c2cnn3cccnc23)sc2c1CCC2 [32B],1000 to 2000 nM
4,Nc1nccc(-c2cc(-c3cccc(C(F)(F)F)c3)no2)n1 [80B],500 to 1000 nM
5,O=C(Nc1cccc(F)c1)Nc1ccc2c(c1)C(=O)OC2 [96B],> 2000 nM
6,O=c1cc(NCc2cccc(C(F)(F)F)c2)nc2ccc(Cl)cn12 [167A],> 2000 nM
7,CN(C)C(=O)c1ccc(-c2cc(C(F)(F)F)nn2C)s1 [59B],500 to 1000 nM
8,COc1ccc(CC(=O)Nc2ccc(-c3nccs3)cc2)cc1S(=O)(=O)N1CCOCC1 [compound 63],500 to 1000 nM
9,c1ccc(N2CCN(c3nc(N4CCCCC4)nc4nccnc34)CC2)cc1 [75A],1000 to 2000 nM
10,COc1ccc(Sc2nccc(N(C)C)c2C#N)cc1 [95A],> 2000 nM
11,COc1cccc(Nc2ccc(-c3ccccc3)nn2)c1 [88A],> 2000 nM
12,CC(=O)c1cc(NC(=O)c2ccc(Cl)cc2)c(=O)n(Cc2ccc(Cl)cc2)c1C [29A],1000 to 2000 nM
13,CC(C)NC(=O)c1nc(-c2cn(-c3ccccc3)cn2)n2ccccc12 [101A],1000 to 2000 nM
14,COc1ccccc1NC(=O)c1sc2nc(N3CCOCC3)c3c(c2c1N)CCCC3 [52A],1000 to 2000 nM
15,CC(=O)c1oc2ccc3c(C)cc(=O)oc3c2c1C [118B],> 2000 nM
16,COCCN1Cc2cccc(C(=O)Nc3ccc(C)c(F)c3)c2C1=O [compound 32],200 to 500 nM
17,CCC(=O)N1CCc2nc(-c3ccccc3)sc2C1 [compound 147],500 to 1000 nM
18,Cc1ccc(OCc2cc(=O)n3ccsc3n2)cc1C [113B],1000 to 2000 nM
19,CCCNC(=O)c1cc2cc3ccc(C)cc3nc2o1 [184A],1000 to 2000 nM
20,CC(C)Nc1ccc(-n2nc3ccccc3[n+]2[O-])cc1 [176A],1000 to 2000 nM
21,CCn1cnc(-c2nc(C(=O)Nc3cccc(F)c3)c3ccccn23)c1 [48A],> 2000 nM
22,CC(C)CCNC(=O)c1cc2c(=O)n(C)c3ccccc3c2s1 [compound 145],500 to 1000 nM
23,CCc1cc2c(=O)c(-c3nc(C)cs3)coc2c(CN2CCCC(c3cccnc3)C2)c1O (stereo not drawn) [197A],1000 to 2000 nM
24,COc1ccc(Nc2cc(C)nc(-c3ccccc3O)n2)cc1 [47B],1000 to 2000 nM

row,SMILES,IC50
1,FC(F)(F)c1ccc(CSc2nccc(-c3cccnc3)n2)cc1 [46B],200 to 500 nM
2,CN(c1nnc(NC(=O)Nc2ccccc2C(F)(F)F)s1)C1CCCCC1 [145A],1000 to 2000 nM
3,COc1ccc([N+](=O)[O-])cc1-c1ccc(/C=N/Nc2ccccc2)o1 [44B],1000 to 2000 nM
4,Cc1ccc(NC(=O)CN(C)C(C)c2cccs2)c(F)c1 (stereo not drawn) [147A],> 2000 nM
5,Cn1c(Cl)cnc1-c1cc(=O)c2cc(Cl)ccc2o1 [53B],1000 to 2000 nM
6,CS(=O)(=O)c1csc(C(=O)Nc2cccc(Cl)c2)c1Cl [18B],> 2000 nM
7,c1ccc2nc(SCc3nc4ccccc4[nH]3)ccc2c1 [65B],1000 to 2000 nM
8,COc1ccc2c(c1)-c1cccc([N+](=O)[O-])c1CC2C#N (stereo not drawn) [compound 152],500 to 1000 nM
9,COc1ccc(NC(=O)c2ccc(C(F)(F)F)[nH]c2=O)cn1 [18A],> 2000 nM
10,CCCOc1ccc(-c2csc(N3CCCC3=O)n2)cc1 [compound 54],500 to 1000 nM
11,Cc1cc(C)n(CC(C)Nc2ccc(Cl)c(C#N)n2)n1 (stereo not drawn) [91A],1000 to 2000 nM
12,CN(Cc1ccsc1)c1nc2ccccn2c1[N+](=O)[O-] [68B],1000 to 2000 nM
13,Fc1ccccc1OCc1cnn(-c2ccccc2)c1 [54B],500 to 1000 nM
14,CCCN(C(=O)C1CC1)c1nnc(-c2ccc(Cl)cc2)s1 [144A],1000 to 2000 nM
15,CC(=O)N(CCn1nc(C)cc1C)c1nc2c(F)cc(F)cc2s1 [compound 93],200 to 500 nM
16,COc1cccc(Cn2c3c(cc(NC(=O)c4ccc(C)cc4)c2=O)C(=O)CCC3)c1 [44A],1000 to 2000 nM
17,COC(=O)c1cc2c(ccn2-c2ccc(F)cc2)n1CCC#N [116B],1000 to 2000 nM
18,O=C(c1csc2nc(-c3ccc(F)cc3)cn12)N1C[C@@H]2CC[C@@H]1C2 [97A],1000 to 2000 nM
19,CCCCCc1ccc2c(C#N)c(OC)ccc2c1 [117B],1000 to 2000 nM
20,COc1ccc(NC(=O)c2noc3c2CC(C)CC3)cc1 (stereo not drawn) [30B],1000 to 2000 nM
21,CCCCc1ccc(C(=O)Nc2ccccc2O)cc1 [8A],> 2000 nM
22,c1cncc(-c2nnc3sc(-c4csc5c4CCCC5)nn23)c1 [99A],1000 to 2000 nM
23,CCOc1ccc(-c2ccc(SCC)nn2)cc1 [90A],> 2000 nM
24,Fc1ccc(-c2cn(-c3ccc4nnc(C(F)(F)F)n4n3)cn2)cc1 [compound 108],500 to 1000 nM

row,SMILES,IC50
1,O=c1cc(CSc2nc3cc(Cl)ccc3o2)nc2sccn12 [112B],200 to 500 nM
2,Cc1c(COc2ccccc2C#N)cccc1[N+](=O)[O-] [88B],200 to 500 nM
3,CSc1ccc(-c2nnc(NC(=O)C(C)(C)C)s2)cc1 [99B],> 2000 nM
4,Cc1cnn(Cc2ncc(-c3ccccc3Br)o2)c1 [77B],> 2000 nM
5,FC(F)(F)c1ccc(N/N=C/c2ccc(Cl)cc2)nc1 [45B],1000 to 2000 nM
6,Nc1cnc(C(=O)c2ccc(Cl)cc2)s1 [66A],1000 to 2000 nM
7,CCOC(=O)c1c(N)sc(C(=O)Nc2cccc(C(F)(F)F)c2)c1C [20A],1000 to 2000 nM
8,Cc1ccc(C(=O)Nc2nc3c(C)cc(C)cc3s2)cc1 [22B],1000 to 2000 nM
9,c1cncc(-c2noc(-c3cc(-c4cccs4)[nH]n3)n2)c1 [compound 144],500 to 1000 nM
10,COc1ccc(C2=Nn3c(nc4ccsc4c3=O)SC2)cc1 [126B],1000 to 2000 nM
11,COc1cccc2c1cc1c(O)nnc(C)n12 [185A],> 2000 nM
12,CSc1nccc(NC(=O)c2cccc(C(F)(F)F)c2)n1 [14A],> 2000 nM
13,Clc1ccc(-c2noc(-c3csnn3)n2)cc1 [84B],500 to 1000 nM
14,CN(C)C(=O)Oc1ccc(-c2cn3cc(C(F)(F)F)ccc3n2)cc1 [compound 103],500 to 1000 nM
15,Cc1ccc(CS(=O)(=O)c2ccc(C(F)(F)F)cn2)cc1 [92A],1000 to 2000 nM
16,COc1ccnc(Sc2ccc(Cl)cc2)c1C#N [94A],1000 to 2000 nM
17,Cn1c(N)c(C(=O)CSc2ccc(F)cc2)c(=O)n(C)c1=O [195A],1000 to 2000 nM
18,COC(=O)C1=C(C)Nc2nc(-c3ccccc3)nn2C1c1cccnc1 (stereo not drawn) [126A],1000 to 2000 nM
19,Cc1c(-c2nc(-c3ccc(C(C)(C)C)cc3)no2)n(C)oc1=O [87B],200 to 500 nM
20,O=C(c1cc2sc3ccccc3c2s1)N1CCCCC1 [186A],> 2000 nM
21,Cc1cc(-c2ccccc2)nc2c1/C(=N\O)CC(C)(C)C2 [104B],500 to 1000 nM
22,Cc1cccc(N2CC[C@H]3[C@H]2CCN3c2ncccn2)n1 [115B],500 to 1000 nM
23,Cc1cc(C)c2oc(-c3cccc(NC(=O)c4cccnc4)c3C)nc2c1 [15A],1000 to 2000 nM
24,Cc1nn(C(=O)Nc2ccccc2)c(C)c1Oc1ccccc1 [22A],1000 to 2000 nM

# — US20210220408A1, “ARYL HYDROCARBON RECEPTOR ANTAGONISTS AND METHODS OF USE” (Magenta Therapeutics Inc., priority 2018, published 2021)
